From ChEMBL document CHEMBL5356986, “Research status of indole-modified natural products” (RSC Med Chem, 2023)
≈ marks a conversion by molar mass, not a printed value.

Legend:
[1] = target: Alpha glucosidase (Homo sapiens, UniProt O43451+P10253+P14410+Q2M2H8); assay: Inhibition of alpha glucosidase (unknown origin) measured after 60 mins; type: protein assay
[2] = system: MCF7; assay: Cytotoxicity against human MCF7 cells assessed as reduction in cell viability after 48 hrs by SRB assay; type: functional, cell-based; conditions: MCF7, 48 h
[3] = system: A549; assay: Antiproliferative activity against human A549 cells assessed as reduction in cell viability by MTT assay; type: functional, cell-based
[4] = system: HeLa; assay: Antiproliferative activity against human HeLa cells assessed as reduction in cell growth; type: functional, cell-based
[5] = system: HeLa; assay: Antiproliferative activity against human HeLa cells assessed as inhibition of cell growth incubated for 72 hrs by MTT assay; type: functional, cell-based
[6] = system: HT-29; assay: Antiproliferative activity against human HT-29 cells assessed as inhibition of cell proliferation by MTT assay; type: functional, cell-based
[7] = system: MCF7; assay: Antiproliferative activity against human MCF7 cells assessed as inhibition of cell growth after overnight incubation by MTT assay; type: functional, cell-based
[8] = system: Bel-7402; assay: Cytotoxicity against human Bel-7402 cells assessed as reduction in cell viability measured after 72 hrs by MTT assay; type: functional, cell-based; conditions: Bel-7402, 72 h
[9] = system: K562; assay: Antiproliferative activity against human K562 cells assessed as cell growth inhibition by MTT assay; type: functional, cell-based
[10] = system: HL-60; assay: Cytotoxicity against human HL-60 cells assessed as reduction in cell viability incubated for 48 hrs by MTT assay; type: functional, cell-based; conditions: HL-60, 48 h
[11] = Cytotoxicity against human A549 cells assessed as cell growth inhibition measured after 24 hrs by MTT assay; type: functional, cell-based
[12] = system: SMMC-7721; assay: Cytotoxicity against human SMMC-7721 cells assessed as reduction in cell viability incubated for 48 hrs by MTT assay; type: functional, cell-based; conditions: SMMC-7721, 48 h
[13] = system: MCF7; assay: Cytotoxicity against human MCF7 cells assessed as reduction in cell growth; type: functional, cell-based
[14] = system: SW480; assay: Cytotoxicity against human SW480 cells assessed as cell growth inhibition; type: functional, cell-based
[15] = system: HepG2; assay: Cytotoxicity against human HepG2 cells assessed as reduction in cell viability measured after 48 hrs by MTT colorimetric based assay; type: functional; conditions: HepG2, 48 h
[16] = system: SGC-7901; assay: Cytotoxicity against human SGC-7901 cells assessed as reduction in cell viability measured after 48 hrs by MTT colorimetric assay; type: functional, cell-based; conditions: SGC-7901, 48 h
[17] = system: Staphylococcus aureus; assay: Antibacterial activity against methicillin-resistant Staphylococcus aureus assessed as reduction in microbial growth; type: functional
[18] = system: Enterococcus faecalis; assay: Antibacterial activity against Enterococcus faecalis assessed as reduction in bacterial growth; type: functional
[19] = system: Staphylococcus aureus; assay: Antibacterial activity against Staphylococcus aureus […] assessed as reduction in microbial growth; type: functional
[20] = system: Staphylococcus aureus; assay: Antibacterial activity against Staphylococcus aureus ATCC 29213 assessed as reduction in microbial growth; type: functional
[21] = system: Escherichia coli; assay: Antibacterial activity against Escherichia coli assessed as reduction in bacterial growth by broth microdilution method; type: functional
[22] = system: Acinetobacter baumannii; assay: Antibacterial activity against Acinetobacter baumannii assessed as reduction in bacterial growth by broth microdilution method; type: functional
[23] = system: MCF7; assay: Antiproliferative activity against human MCF7 cells assessed as reduction in cell viability incubated for 120 hrs by MTT assay; type: functional, cell-based; conditions: MCF7, 120 h
[24] = system: HeLa; assay: Cytotoxicity against human HeLa cells assessed as reduction in cell viability; type: functional, cell-based
[25] = system: H4; assay: Antiproliferative activity against human H4 cells assessed as cell growth inhibition; type: functional, cell-based
[26] = Antioxidant activity assessed as DPPH radical scavenging activity measured after 30 mins; type: functional
[27] = system: RPMI-8226; assay: Growth inhibition of human RPMI-8226 cells; type: functional
[28] = system: CCRF-CEM; assay: Growth inhibition of human CCRF-CEM cells; type: functional

## C=C(C)[C@@H]1CC[C@]2(C(=O)NCC(=O)O)CC[C@]3(C)[C@H](CC[C@@H]4[C@@]5(C)Cc6c([nH]c7ccccc67)C(C)(C)[C@@H]5CC[C@]43C)[C@@H]12
[1]
  IC50: 1800 nM

## COc1ccc2[nH]c(C(=O)OC3O[C@@H]4O[C@@]5(C)CC[C@H]6[C@H](C)CC[C@@H]([C@H]3C)[C@@]46OO5)cc2c1 (some centres undefined)
[2]
  IC50: 14500 nM
[3]
  IC50: 13400 nM

## COc1ccc2c(/C=N/[C@H]3c4cc5c(cc4[C@@H](c4cc(OC)c(OC)c(OC)c4)[C@H]4C(=O)OC[C@@H]43)OCO5)cn(Cc3ccccc3F)c2c1
[4]
  IC50: 790 nM

## COc1cc([C@@H]2c3cc4c(cc3[C@H](NCc3c[nH]c5ccccc35)[C@H]3COC(=O)[C@H]23)OCO4)cc(OC)c1OC
[4]
  IC50: 100 nM

## COc1cc([C@@H]2c3cc4c(cc3[C@H](OC(=O)c3c[nH]c5ccccc35)[C@H]3COC(=O)[C@H]23)OCO4)cc(OC)c1OC
[4]
  IC50: 2200 nM

## COC(=O)c1[nH]c2ccccc2c1/C=C/C(=O)c1cc(OC)c(OC)c(OC)c1
[5]
  IC50: 2000 nM
[6]
  IC50: 7300 nM
[7]
  IC50: 1100 nM

## COC(=O)[C@]1(C)CC[C@]2(C)CC[C@]3(C)C4=CC(c5c[nH]c6cc(C)ccc56)=C5C(=CC(OC)C(OC)=C5C)[C@]4(C)CC[C@@]3(C)[C@@H]2C1 (some centres undefined)
[8]
  IC50: 20 nM

## CCOC(=O)c1[nH]c2ccc(OC)cc2c1/C=C/C(=O)c1cc(OC)c(OC)c(OC)c1
[5]
  IC50: 330 nM
[6]
  IC50: 390 nM
[7]
  IC50: 460 nM

## CCOC(=O)c1[nH]c2ccccc2c1/C=C/C(=O)c1cc(OC)c(OC)c(OC)c1
[5]
  IC50: 2100 nM
[6]
  IC50: 440 nM
[7]
  IC50: 1800 nM

## COc1cc([C@@H]2c3cc4c(cc3[C@H](NC(=O)C(=O)c3cn(Cc5ccccc5Cl)c5ccc(F)cc35)[C@H]3COC(=O)[C@H]23)OCO4)cc(OC)c1OC
[4]
  IC50: 150 nM
[9]
  IC50: 400 nM

## CCOC(=O)c1[nH]c2cc(OC)ccc2c1/C=C/C(=O)c1cc(OC)c(OC)c(OC)c1
[5]
  IC50: 840 nM
[6]
  IC50: 130 nM
[7]
  IC50: 240 nM

## COC(=O)C1=CO[C@@H](OC)[C@@H]2C(C(NCCc3c[nH]c4ccc(OC)cc34)NCCc3c[nH]c4ccc(OC)cc34)=CC[C@H]12
[10]
  IC50: 430 nM
[11]
  IC50: 1180 nM
[12]
  IC50: 690 nM
[13]
  IC50: 580 nM
[14]
  IC50: 890 nM

## COc1cc([C@@H]2c3cc4c(cc3[C@H](NC(=O)C(=O)c3c[nH]c5ccc(C(=O)NC(C)C)cc35)[C@H]3COC(=O)[C@H]23)OCO4)cc(OC)c1OC
[4]
  IC50: 3920 nM

## C[C@H]1[C@H](C)CC[C@]2(C(=O)O)CC[C@]3(C)C(=CC[C@@H]4[C@@]5(C)CC[C@H](O)C(C)(C)[C@@H]5CC[C@]43C)[C@H]12 [URSOLIC ACID]
[15]
  IC50: > 20000 nM
[16]
  IC50: > 20000 nM

## Cc1cc(=O)oc2cc(/N=C3/S/C(=C\c4c[nH]c5ccccc45)C(=O)N3CCO)ccc12
[17]
  MIC: 0.25 µg/mL
[18]
  MIC: 0.25 µg/mL (≈ 0.561 µM)
[19]
  MIC: 0.25 µg/mL
[20]
  MIC: 0.25 µg/mL
[21]
  MIC: 0.25 µg/mL (≈ 0.561 µM)
[22]
  MIC: 0.25 µg/mL (≈ 0.561 µM)

## COc1ccc2[nH]cc(C(=O)C(=O)N[C@H]3c4cc5c(cc4[C@@H](c4cc(OC)c(OC)c(OC)c4)[C@H]4C(=O)OC[C@@H]43)OCO5)c2c1
[23]
  IC50: 1960 nM
[4]
  IC50: 1960 nM

## COc1ccc(/C=C\c2cc(OC)c(OC)c(OC)c2)cc1OC(=O)c1cccc(-n2cc(CCOC(=O)[C@H](N)Cc3cn(C)c4ccccc34)nn2)c1
[24]
  IC50: 70 nM

## COC(=O)[C@]1(C)CC[C@]2(C)CC[C@]3(C)C4=CC(c5cn(C)c6cc(Cl)ccc56)=C5C(=CC(OC)C(OC)=C5C)[C@]4(C)CC[C@@]3(C)[C@@H]2C1 (some centres undefined)
[25]
  IC50: 2030 nM
[8]
  IC50: 10 nM

## O=C1O[C@H]([C@@H](O)CO)C(O)=C1O [ASCORBIC ACID]
[26]
  EC50: 23000 nM

## C=C1C(=O)O[C@H]2[C@H]1CC1C(COC(=O)c3c[nH]c4ccccc34)=CCC[C@@]3(C)O[C@@]123 (some centres undefined)
[27]
  GI50: 40 nM
[28]
  GI50: 50 nM

## CCn1cc(C(=O)O)c(=O)c2cc(F)c(N3CCNCC3)cc21 [NORFLOXACIN]
[17]
  MIC: 4 µg/mL
[18]
  MIC: 4 µg/mL (≈ 12.5 µM)
[19]
  MIC: 4 µg/mL
[20]
  MIC: 2 µg/mL
[21]
  MIC: 2 µg/mL (≈ 6.26 µM)
[22]
  MIC: 2 µg/mL (≈ 6.26 µM)
